Here are results for 21 molecules from ChEMBL document CHEMBL4138238, “A minimalistic approach to develop new anti-apicomplexa polyamines analogs” (Eur J Med Chem, 2018).

For data set [1], the system named is Toxoplasma gondii. In words: Growth inhibition of GFP-fused Toxoplasma gondii RH infected in HFF at 1 uM after 3 days by fluorescence microscopic method relative to control. In kind it is functional. As to conditions: for inhibition of growth at 1 µM: 72 h, read-out: GI.
The subject of data set [2] is Plasmodium falciparum. In words: microbe, parasite or virus in culture. As to conditions: D6, 48 h.
Data set [3] relates to Plasmodium falciparum. In words: microbe, parasite or virus in culture. As to conditions: W2, 48 h.
The test system of the next data set is Vero. In words: Cytotoxicity against African green monkey Vero cells assessed as reduction in cell viability after 48 hrs. It counts as cell-based. Conditions: Chlorocebus sabaeus.
The test system of data set [4] is Toxoplasma gondii. In words: Antiparasitic activity against Toxoplasma gondii RH infected in HFF treated at 4 hrs post infection measured at 5 days post infection by crystal violet staining based method. In kind it is functional, organism-based.
Another data set concerns HFF. In words: Cytotoxicity against HFF cells at 10 uM. In kind it is cell-based. Conditions: human.
Data set [5] is described as follows: Selectivity index, ratio of IC50 for African green monkey Vero cells to IC50 for chloroquine-resistant Plasmodium falciparum W2. It counts as toxicity. As to conditions: read-out: Ratio IC50.
The nature of data set [6]: Selectivity index, ratio of IC50 for African green monkey Vero cells to IC50 for chloroquine-sensitive Plasmodium falciparum D6. Conditions: read-out: Ratio IC50. In kind it is toxicity.

Structures are written as SMILES. Activity calls are given as the source filed them. The calls are words filed in the database; no cut-off is given here.

The term IC50 denotes the point on the concentration scale where inhibition reaches its midpoint. Consider `COc1ccc(CNCCCCCCNCc2ccc(OC)c(O)c2)cc1O`, for which, in the data set on Toxoplasma gondii [1], the inhibition of growth at 1 µM turned out to be 50%. Besides, the results for the IC50 in the data set on Plasmodium falciparum [2], in the data set on Plasmodium falciparum [3] and in the data set on Vero were more than 8 µM, more than 8 µM and more than 4.46 µg/mL, respectively.
Take `CCc1nc(N)nc(N)c1-c1ccc(Cl)cc1`: the “growth inhibition (GI)” value in the data set on Toxoplasma gondii [1] is “inactive”.
Regarding `COc1cc(CNCCCNCc2ccc(OCc3ccccc3)c(OC)c2)ccc1OCc1ccccc1`, the 50% inhibitory concentration (IC50) was 1.53 µM in the data set on Toxoplasma gondii [4], 0.42 µM with Plasmodium falciparum [2] and 0.47 µM in the data set with Plasmodium falciparum [3]. Further, in the data set on HFF, the Activity entry is given as “Non-Toxic”. Further, the inhibition of growth at 1 µM with Toxoplasma gondii [1] was 100%.
Regarding `COc1cc(CNCCCCCCNCc2ccc(OCc3ccccc3)c(OC)c2)ccc1OCc1ccccc1`, in the data set on Toxoplasma gondii [1], the inhibition of growth at 1 µM turned out to be 25%. Moreover, the IC50 is 0.26 µM in the data set on Plasmodium falciparum [2], 0.44 µM in the data set with Plasmodium falciparum [3] and more than 4.46 µg/mL in the data set on Vero. The selectivity ratio in data set [5] is more than 19; in data set [6], more than 31.7.
Take `COc1ccc(CNCCCCCCCCNCc2ccc(OC)cc2)cc1`: the inhibition of growth at 1 µM in the data set on Toxoplasma gondii [1] was found to be 25%. The half-maximal inhibitory concentration (IC50) with Plasmodium falciparum [2] is 1.48 µM; with Plasmodium falciparum [3], 1.69 µM; in the data set on Vero it was more than 4.46 µg/mL. Also, the selectivity ratio in data set [5] was more than 7.3; in data set [6], more than 8.4.
As to `COc1ccc(CNCCCNCc2ccc(OC)c(O)c2)cc1O`, the IC50 in the data set on Plasmodium falciparum [2] was more than 8 µM; in the data set with Plasmodium falciparum [3], more than 8 µM; in the data set on Vero, more than 4.46 µg/mL.
As to `c1ccc(CNCCCNCc2ccccc2)cc1`, the inhibition of growth at 1 µM in the data set on Toxoplasma gondii [1] was 25%. Further, the IC50 in the data set with Plasmodium falciparum [2] is 2.35 µM; with Plasmodium falciparum [3], 2.63 µM; in the data set with Vero, more than 4.46 µg/mL. Further, the selectivity ratio in data set [5] is more than 7.1; in data set [6] it was more than 7.9.
On to `COc1ccc(CNCCCNCc2ccc(OC)cc2)cc1`, for which the inhibition of growth at 1 µM in the data set on Toxoplasma gondii [1] turned out to be 50%. Further, the half-inhibitory concentration (IC50) with Plasmodium falciparum [2] was 3.18 µM; in the data set on Plasmodium falciparum [3], 5.41 µM; in the data set on Vero, more than 4.46 µg/mL. The selectivity ratio was more than 2.8 in data set [5] and more than 4.8 in data set [6].
Consider `C[C@@H]1CC[C@H]2[C@@H](C)C(=O)O[C@@H]3O[C@@]4(C)CC[C@@H]1[C@]32OO4` [ARTEMISININ], for which the IC50 in the data set on Plasmodium falciparum [2] and in the data set with Plasmodium falciparum [3] was 0.094 µM throughout.
On to `COc1ccc(CNCCCCCCNCc2ccc(OC)cc2)cc1`, for which the inhibition of growth at 1 µM in the data set on Toxoplasma gondii [1] is 25%. For the same molecule, the values for the IC50 in the data set with Plasmodium falciparum [2] and in the data set on Plasmodium falciparum [3] were 3.08 µM and 3.36 µM, respectively. Further, the selectivity ratio amounted to 2.5 in data set [5] and 2.4 in data set [6].
Take `COc1ccc(CNCCCCCCCCCCNCc2ccc(OC)c(O)c2)cc1O`: the inhibition of growth at 1 µM in the data set with Toxoplasma gondii [1] came to 25%. In addition, the half-maximal inhibitory concentration (IC50) is 1.97 µM with Plasmodium falciparum [2], 1.88 µM with Plasmodium falciparum [3] and more than 4.46 µg/mL in the data set on Vero. In addition, the selectivity ratio is more than 5.7 in data set [5] and more than 5.41 in data set [6].
Take `COc1cc(CNCCCCCCCCCCCCNCc2ccc(OCc3ccccc3)c(OC)c2)ccc1OCc1ccccc1`: the inhibition of growth at 1 µM with Toxoplasma gondii [1] turned out to be 25%. Also, the IC50 in the data set with Plasmodium falciparum [2] is 1.28 µM; with Plasmodium falciparum [3], 1.37 µM; with Vero, more than 4.46 µg/mL. Besides, the selectivity ratio in data set [5] is more than 5.3; in data set [6], more than 5.67.
Regarding `COc1cc(CNCCCCNCc2ccc(OCc3ccccc3)c(OC)c2)ccc1OCc1ccccc1`, the inhibition of growth at 1 µM with Toxoplasma gondii [1] stood at 50%. Besides, the figures for the half-maximal inhibitory concentration (IC50) in the data set with Plasmodium falciparum [2], with Plasmodium falciparum [3] and in the data set with Vero were 0.33 µM, 0.49 µM and more than 4.46 µg/mL, respectively. The figures for the selectivity ratio in data set [5] and in data set [6] were more than 18.4 and more than 27.4, respectively.
Take `COc1ccc(CNCCCCNCc2ccc(OC)cc2)cc1`: in the data set on Toxoplasma gondii [1], the inhibition of growth at 1 µM was 25%. The half-maximal inhibitory concentration (IC50) was 4.57 µM in the data set on Plasmodium falciparum [2], 6.69 µM with Plasmodium falciparum [3] and more than 4.46 µg/mL in the data set on Vero. Besides, the selectivity ratio in data set [5] is more than 2.2; in data set [6], more than 3.2.
`COc1ccc(CNCCCCCCCCCCNCc2ccc(OC)cc2)cc1`: in the data set with Toxoplasma gondii [1], the inhibition of growth at 1 µM was determined as 50%. Moreover, the figures for the half-maximal inhibitory concentration (IC50) in the data set on Plasmodium falciparum [2], in the data set on Plasmodium falciparum [3] and with Vero were 0.6 µM, 0.67 µM and more than 4.46 µg/mL, respectively. For the same molecule, the selectivity ratio was more than 17 in data set [5] and more than 19 in data set [6].
In the case of `COc1cc(CNCCCCCCCCNCc2ccc(OCc3ccccc3)c(OC)c2)ccc1OCc1ccccc1`, the “growth inhibition (GI)” value with Toxoplasma gondii [1] is “inactive”. Further, the values for the IC50 in the data set on Plasmodium falciparum [2], in the data set with Plasmodium falciparum [3] and in the data set with Vero were 0.31 µM, 0.43 µM and 4.52 µM, respectively. The selectivity ratio in data set [5] came to 10.5; in data set [6], 14.6.
Regarding `COc1ccc(CNCCCCCCCCCCCCNCc2ccc(OC)c(O)c2)cc1O`, the inhibition of growth at 1 µM with Toxoplasma gondii [1] came out at 25%. The IC50 with Plasmodium falciparum [2] was 1.97 µM; with Plasmodium falciparum [3] it was 2.88 µM; in the data set on Vero it was more than 4.46 µg/mL. The figures for the selectivity ratio in data set [5] and in data set [6] were more than 3.5 and more than 5.1, respectively.
Turning to `COc1ccc(CNCCCCCCCCNCc2ccc(OC)c(O)c2)cc1O`, the inhibition of growth at 1 µM in the data set on Toxoplasma gondii [1] was 25%. In addition, the IC50 with Plasmodium falciparum [2] was 4.8 µM; with Plasmodium falciparum [3], 5.52 µM; in the data set on Vero, more than 4.46 µg/mL. Moreover, the selectivity ratio in data set [5] was more than 2.1; in data set [6], more than 2.38.
For `COc1ccc(CNCCCCCCCCCCCCNCc2ccc(OC)cc2)cc1`, the inhibition of growth at 1 µM in the data set on Toxoplasma gondii [1] worked out at 75%. Further, the half-maximal inhibitory concentration (IC50) was 1.58 µM in the data set with Plasmodium falciparum [2], 1.86 µM in the data set with Plasmodium falciparum [3] and more than 4.46 µg/mL with Vero. For the same molecule, the figures for the selectivity ratio in data set [5] and in data set [6] were more than 5.8 and more than 6.8, respectively.
For the molecule `COc1ccc(CNCCCCNCc2ccc(OC)c(O)c2)cc1O`, the inhibition of growth at 1 µM with Toxoplasma gondii [1] was found to be 75%. In addition, the IC50 in the data set on Plasmodium falciparum [2] is more than 8 µM; in the data set with Plasmodium falciparum [3], more than 8 µM; in the data set with Vero it was more than 4.46 µg/mL.
Turning to `COc1cc(CNCCCCCCCCCCNCc2ccc(OCc3ccccc3)c(OC)c2)ccc1OCc1ccccc1`, the inhibition of growth at 1 µM in the data set with Toxoplasma gondii [1] was determined as 25%. Moreover, the 50% inhibitory concentration (IC50) in the data set with Plasmodium falciparum [2] is 1.12 µM; in the data set on Plasmodium falciparum [3], 1.05 µM; with Vero, more than 4.46 µg/mL. Also, the selectivity ratio in data set [5] is more than 7.2; in data set [6], more than 6.8.
